In patent US20220144850A1, “INDOLO HEPTAMYL OXIME ANALOGUE AS PARP INHIBITOR” (Chia Tai Tianqing Pharmaceutical Group Co., Ltd., priority 2019, published 2022):
pIC50: −log10 of the molar value. Like-named read-outs stand apart in the source and are kept apart here.

Tests used:
[1] = test system: BRCA-wild type MDA-MB-231 cells; assay: Anti-proliferation experiment on MDA-MB-231 CTG cells; assay type: cell-based; details: Homo sapiens, MDA-MB-231, 72 h; 3 days incubation, CellTiter-Glo
Procedure: Experimental Example 3: Anti-Proliferation Experiment on MDA-MB-231 CTG Cells
Experimental materials: test compounds; R DMEM medium; fetal bovine serum; penicillin/streptomycin antibiotic; MDA-MB-231 cell line; Envision multi-label analyzer.
MDA-MB-231 cells were seeded in a white 96-well plate by adding 80 μL of cell suspension (containing 5000 MDA-MB-231 cells) to each well. The cell plate was incubated in a CO2 incubator overnight.
Eight concentration points were set for each compound, test compounds were serially 3-fold diluted to the 8th concentration with a multichannel pipette, i.e. from 2 mM to 920 nM, and a duplicate well experiment was performed. 78 μL of medium was added to a intermediate plate, 2 μL of each of serially diluted compounds was transferred to corresponding wells of the intermediate plate, and after mixing, the mixture was transferred to the cell plate at 20 μL per well. The cell plate was incubated in a CO2 incubator for 3 days. Another cell plate was provided for reading signal values on the day of compound addition and these signal values were used as Max values in data analysis. Promega CellTiter-Glo was added to this cell plate at 25 μL per well and the luminescence signals were stabilized by incubation for 10 min at room temperature. Readings were taken using a PerkinElmer Envision multi-marker analyzer.
Promega CellTiter-Glo was added to the cell plate at 25 μL per well and the luminescence signals were stabilized by incubation for 10 min at room temperature. Readings were taken using a PerkinElmer Envision multi-marker analyzer.
Data analysis: the original data was converted to inhibition using the equation (sample−Min)/(Max−Min)×100%, and the IC50 value was then curve fitted using four parameters (obtained from the “log(inhibitor) vs. response-variable slope” model in GraphPad Prism). Table 1 provides the inhibitory activity of the compounds disclosed herein against MDA-MB-231 cell proliferation.

[2] = Metabolic stability in liver microsomes, mouse; assay type: in vitro ADME; details: Mouse liver microsomes 0.5 mg/mL, 1 μM compound, NADPH, 37° C.
Procedure: (§1) Experimental Example 7. Metabolic Stability in Liver Microsomes
(§2) Experimental objective: to test the metabolic stability of test compounds in liver microsomes of three species.
(§3) Experimental method: 1 μM test compound and a microsome (0.5 mg/mL) were incubated at 37° C. in the presence of an NADPH regeneration system; positive controls were testosterone (3A4 substrate), propylamine propiophenone (2D6 substrate) and diclofenac (2C9 substrate), and also at 37° C., a positive control was incubated with a microsome (0.5 mg/mL) in the presence of an NADPH regenerating system; the reaction was stopped by direct mixing of the sample with cold acetonitrile containing an internal standard at various time points (0, 5, 10, 20, 30 and 60 min); the compound and microsome were incubated for 60 min in the absence of an NADPH regenerating system; one parallel (n=1) was set at each time point; the samples were analyzed by LC/MS/MS; the concentration of the compound was characterized by the ratio of the analyte peak area to the internal standard peak area.

[3] = Metabolic stability in liver microsomes, rat; assay type: in vitro ADME; details: Rat liver microsomes 0.5 mg/mL, 1 μM compound, NADPH, 37° C.
Procedure: as §1, §2, §3

[4] = Single-dose pharmacokinetic study in mice; assay type: in vivo; details: male C57BL/6 mice; for Maximum concentration / bioavailability / clearance / half-life / Vd: IV: 1 mg/kg PO: 5 mg/kg; for bioavailability / clearance / half-life / Vd / AUC(0-t): mouse, plasma; for Vd: read-out: Apparent volume of distribution
From the text: Experimental Example 8: Single-Dose Pharmacokinetic Study in Mice
Experimental objective: to evaluate the pharmacokinetic behavior by using male C57BL/6 mice as test animals and determining the drug concentrations of the compounds in the plasma, liver and cerebrospinal fluid after single-dose administration.
Experimental method: healthy adult male C57BL/6 mice were selected for intragastric administration. A candidate compound was mixed with an appropriate amount of 10% DMSO/90% (20% hydroxypropyl-β-cyclodextrin), vortexed and sonicated to prepare a 0.5 mg/mL clear solution for later use. After the mice were administered intravenously at 1 mg/kg and orally at 5 mg/kg, whole blood was collected at certain time points, and plasma was separated, and liver and cerebrospinal fluid were collected. After pretreatment of the samples, the drug concentration was measured by LC-MS/MS, and pharmacokinetic parameters were calculated using Phoenix WinNonlin software.

[5] = Metabolic stability in liver microsomes, human; assay type: in vitro ADME; details: Human liver microsomes 0.5 mg/mL, 1 μM compound, NADPH, 37° C.
Procedure: as §1, §2, §3

[6] = intravenous 1 mg/kg, read-out: AUC0-last (intravenous injection)
[7] = oral 5 mg/kg, read-out: AUC0-last (oral)

| pIC50 [1] | Residual content after 60 min of incubation [2] | Residual content after 60 min of incubation [3] | Maximum concentration [4] | bioavailability [4] | clearance [4] | half-life [4] | Vd [4] | AUC(0-t) [4, 6] | AUC(0-t) [4, 7] | Residual content after 60 min of incubation [5] | SMILES |
| --- | --- | --- | --- | --- | --- | --- | --- | --- | --- | --- | --- |
| < 5.00 | 57.7% | 34.5% | 285 nM | 37.9% | 60.7 mL/min/kg | 2.15 h | 8.22 L/kg | 0.679 µM·h | 1.29 µM·h | 29.6% | CC1(c2ccc(-c3[nH]c4cc(F)cc5c4c3CONC5=O)cc2F)CCCN1 (single isomer, unassigned) [Example 26_A] |
| < 5.00 | 45.6% | 55.4% |  |  |  |  |  |  |  | 53.7% | CC1(c2ccc(-c3[nH]c4cccc5c4c3CONC5=O)cc2)CCCN1 (centres unmarked) [Example 6_A] |
| < 5.00 | 52.3% | 60.6% | 433 nM | 21.2% | 34.9 mL/min/kg | 2.03 h | 4.21 L/kg | 1.3 µM·h | 1.38 µM·h | 60.4% | O=C1NOCc2c(-c3ccc(C4CCCN4)cc3)[nH]c3cc(F)cc1c23 (single isomer, unassigned) [Example 24_A] |
| < 5.00 | 57.1% | 58.1% |  |  |  |  |  |  |  | 73.8% | O=C1NOCc2c(-c3ccc(C4CCCN4)c(F)c3)[nH]c3cccc1c23 (centres unmarked) [Example 11_A] |

| SMILES | pIC50 [1] | Residual content after 60 min of incubation [2] | Residual content after 60 min of incubation [3] | Maximum concentration [4] | bioavailability [4] | clearance [4] | half-life [4] | Vd [4] | AUC(0-t) [4, 6] | AUC(0-t) [4, 7] | Residual content after 60 min of incubation [5] |
| --- | --- | --- | --- | --- | --- | --- | --- | --- | --- | --- | --- |
| CC1(c2ccc(-c3[nH]c4cc(F)cc5c4c3CONC5=O)cc2)CCCN1 (centres unmarked) [Example 25_A] | < 5.00 | 40.7% | 31.8% | 240 nM | 24.8% | 41 mL/min/kg | 3.02 h | 9.44 L/kg | 0.958 µM·h | 1.19 µM·h | 35.9% |
